Test results as given in patent publication US20250040539A1, “COMPOSITION COMPRISING AN ANTIMICROBIAL AGENT AND A CARBOXAMIDE” (BASF SE, priority 2021, published 2025).

System: bacterial mix: Escherichia coli DSM 1576, Alcaligenes faecalis DSM 13644, Pseudomonas aeruginosa ATCC 15442, Staphylococcus aureus ATCC 6538, Burkholderia …
Assay: Preservative activity of a basic composition (10% PG in water, pH 7) with 1,2-benzisothiazol-3(2H)-one (BIT) against bacterial contamination (Example 2.3)
Format: cell-based
Conditions: 10% PG + 0.004% BIT, no amide (Comparative 2); day 7
Procedure: An aqueous composition of pH 7 comprising 10% by weight of propyleneglycol (PG) as organic solvent, 0.004% by weight of 1,2-benzisothiazol-3(2H)-one (BIT) as antimicrobial and 0.04% by weight of the amide listed in the below table was tested for its preserving activity against bacterial contamination (the percentages are weight percent and relate to the total weight of the composition). For this purpose, the samples were contaminated with a bacterial mix consisting of: • Escherichia coli DSM 1576 • Alcaligenes faecalis DSM 13644 • Pseudomonas aeruginosa ATCC 15442 • Staphylococcus aureus ATCC 6538 • Burkholderia cepacia DSM 7288 • Pseudomonas putida DSM 12735
The samples were inoculated with the bacterial mix at day 0 to obtain 10E+06 to 10E+07 CFU/ml inoculation in the test sample and stored at 25° C. for 7 days.
CFU was determined at day 7.
Any CFU value at day 7 (d7) obtained with a sample according to the invention containing BIT and amide (10% PG+0.004% BIT+Amide in water) lower than the respective value of the “comparative 2” example (10% by weight of propyleneglycol+0.004% by weight of 1,2-benzisothiazol-3(2H)-one (BIT) in water) indicates a better performance.

SMILES: O=c1[nH]sc2ccccc12 [BIT, 1,2-benzisothiazol-3(2H)-one, reference compound]
- d7 [CFU/ml]: >100,000 CFU/ml
